Data taken from PubChem BioAssay AID200 (DTP/NCI, 2004).
Where “and” joins values, the source holds several entries; their conditions need not be identical. Equal entries are not always repeated. Inconclusive results and toxic doses are left out.

System: B6C3F1 mice, B16 melanoma ip, median survival T/C
Assay: NCI In Vivo Anticancer Drug Screen. Data for tumor model B16 Melanoma (intraperitoneal) in B6C3F1 mice
Settings: endpoint: median survival time, schedule: Q01DX009 (ip), higher = longer survival
How it was run: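 Transplantable tumor in mice; treated vs vehicle control groups; survival or tumor size measured; value = T/C ratio.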

[1] = dose: 25.0 mg/kg/injection, vehicle: saline
[2] = dose: 50.0 mg/kg/injection, vehicle: saline
[3] = dose: 6.25 mg/kg/injection, vehicle: saline with Tween-80
[4] = dose: 3.0 mg/kg/injection, vehicle: saline with Tween-80
[5] = dose: 6.0 mg/kg/injection, vehicle: saline with Tween-80

Compound: O=C(CCBr)NCCNC(=O)CCBr
- T/C (dose: 43.7 mg/kg/injection, vehicle: saline with Tween-80): 96 % of control
- T/C (dose: 87.5 mg/kg/injection, vehicle: saline with Tween-80): 100 % of control
- T/C (dose: 175.0 mg/kg/injection, vehicle: saline with Tween-80): 98 % of control

Compound: N=C1CCCS1
- T/C [1]: 109 % of control
- T/C [2]: 120 % of control

Compound: CC(=O)OCC1C(=O)OCC1C(=O)N1Cc2cc3ccccc3nc2C1 (stereo not given)
- T/C (dose: 8.0 mg/kg/injection, vehicle: saline with Tween-80): 115 % of control
- T/C (dose: 16.0 mg/kg/injection, vehicle: saline with Tween-80): 95 % of control
- T/C (dose: 32.0 mg/kg/injection, vehicle: saline with Tween-80): 100 % of control
- T/C (dose: 64.0 mg/kg/injection, vehicle: saline with Tween-80): 91 % of control
- T/C (dose: 128.0 mg/kg/injection, vehicle: saline with Tween-80): 88 % of control

Compound: CN(C)CSCN(C)C
- T/C (dose: 1.56 mg/kg/injection, vehicle: saline with Tween-80): 97 % of control
- T/C (dose: 3.13 mg/kg/injection, vehicle: saline with Tween-80): 89 % of control
- T/C [3]: 101 % of control

Compound: O=C(O)CC1C(=O)OC2C3COC(=O)c4cc(O)c(O)c(O)c4-c4c(cc(O)c(O)c4O)C(=O)OC2C(OC(=O)c2cc(O)c(O)c4c2C1C(O)C(=O)O4)C(OC(=O)c1cc(O)c(O)c(O)c1)O3 (stereo not given)
- T/C (dose: 6.25 mg/kg/injection, vehicle: saline): 94 % of control
- T/C (dose: 12.5 mg/kg/injection, vehicle: saline): 99 % of control
- T/C [1]: 100 % of control
- T/C [2]: 88 % of control

Compound: NC(N)=NCCCC(NC(=O)c1ccccc1)C(=O)O (stereo not given)
- T/C (dose: 40.0 mg/kg/injection, vehicle: saline with Tween-80): 95 % of control and 102 % of control (2×)
- T/C (dose: 80.0 mg/kg/injection, vehicle: saline with Tween-80): 122 % of control and 95 % of control and 96 % of control
- T/C (dose: 160.0 mg/kg/injection, vehicle: saline with Tween-80): 108 % of control and 102 % of control
- T/C (dose: 320.0 mg/kg/injection, vehicle: saline with Tween-80): 108 % of control and 105 % of control and 106 % of control
- T/C (dose: 640.0 mg/kg/injection, vehicle: saline with Tween-80): 113 % of control

Compound: O=NNc1cnccn1
- T/C (dose: 3.12 mg/kg/injection, vehicle: water): 120 % of control and 103 % of control and 106 % of control
- T/C (dose: 6.25 mg/kg/injection, vehicle: water): 109 % of control and 110 % of control and 114 % of control
- T/C (dose: 12.5 mg/kg/injection, vehicle: water): 113 % of control
- T/C (dose: 25.0 mg/kg/injection, vehicle: water): 155 % of control and 158 % of control and 169 % of control
- T/C (dose: 50.0 mg/kg/injection, vehicle: water): 96 % of control

Compound: c1ccc2c(c1)[As]=c1ccccc1=[As]2 (stereo not given)
- T/C (dose: 0.75 mg/kg/injection, vehicle: saline with Tween-80): 105 % of control
- T/C (dose: 1.5 mg/kg/injection, vehicle: saline with Tween-80): 112 % of control and 103 % of control
- T/C [4]: 107 % of control and 108 % of control
- T/C [5]: 115 % of control and 98 % of control
- T/C (dose: 12.0 mg/kg/injection, vehicle: saline with Tween-80): 122 % of control
- T/C (dose: 24.0 mg/kg/injection, vehicle: saline with Tween-80): 87 % of control

Compound: COc1ccc(S(=O)(=O)N=N/C=C2\C=CC=CN2O)cc1OC
- T/C [4]: 119 % of control
- T/C (dose: 3.12 mg/kg/injection, vehicle: saline with Tween-80): 111 % of control
- T/C [5]: 123 % of control
- T/C [3]: 102 % of control
- T/C (dose: 12.5 mg/kg/injection, vehicle: saline with Tween-80): 107 % of control
- T/C (dose: 25.0 mg/kg/injection, vehicle: saline with Tween-80): 123 % of control
- T/C (dose: 50.0 mg/kg/injection, vehicle: saline with Tween-80): 122 % of control
